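These data come from cells grown in 96-well plates and exposed to compound for 48 hours at five concentrations. At the GI50, growth is halved.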 Active and inactive are the calls of the source. Cut-off read from the data, not from the text of the source: active = GI50 up to about 1.1 µM and inactive = higher.
Legend:
Experiment in all cases: NCI tumour cell line growth inhibition, 48 h
DLD-1 = system: DLD-1
LXFL 529 = system: LXFL 529
DMS-114 = system: DMS-114
SNB-78 = system: SNB-78
KM-20L2 = system: KM-20L2
HOP-18 = system: HOP-18
DMS-273 = system: DMS-273
XF498 = system: XF498
RXF 631 = system: RXF 631

SMILES	GI50 (DLD-1)	GI50 (LXFL 529)	GI50 (DMS-114)	GI50 (SNB-78)	GI50 (KM-20L2)	GI50 (HOP-18)	GI50 (DMS-273)	GI50 (XF498)	GI50 (RXF 631)
COC(=O)C1CC2C=CC=CC(=O)C2(C)C1 (stereo unspecified)	15.6 µM (inactive)	31.2 µM (inactive)	40.4 µM (inactive)	30.7 µM (inactive)	> 100 µM (inactive)	–	–	–	–
CC12CC[C@H](O)C(C)(C)[C@H]1CC[C@](C)(O)C2COc1ccc2ccc(=O)oc2c1 (stereo partly specified)	> 100 µM (inactive)	> 100 µM (inactive)	85.3 µM (inactive)	48.4 µM (inactive)	> 100 µM (inactive)	> 100 µM (inactive)	> 100 µM (inactive)	> 100 µM (inactive)	–
N#C/C(N)=N/c1ccccc1	> 100 µM (inactive)	> 100 µM (inactive)	16.9 µM (inactive)	–	> 100 µM (inactive)	> 100 µM (inactive)	> 100 µM (inactive)	–	> 100 µM (inactive)
CN(C)CC1CCCC(CN2CCCCC2)C1=O (stereo unspecified)	2.98 µM (inactive)	–	–	7.71 µM (inactive)	19.6 µM (inactive)	2.02 µM (inactive)	22.1 µM (inactive)	–	–
CC(C)N(C(=O)C12C3C4C1C1C2C3C41C(O)C(C)(C)C)C(C)C (stereo unspecified)	–	> 50 µM (inactive)	> 50 µM (inactive)	> 50 µM (inactive)	> 50 µM (inactive)	–	> 50 µM (inactive)	> 50 µM (inactive)	–
O=C(O)CCN(CCCN(CCC(=O)O)CCC(=O)O)CCC(=O)O	> 100 µM (inactive)	> 100 µM (inactive)	> 100 µM (inactive)	–	> 100 µM (inactive)	> 100 µM (inactive)	> 100 µM (inactive)	> 100 µM (inactive)	> 100 µM (inactive)
OCC1OC(NO)C(O)C(O)C1O (stereo unspecified)	> 100 µM (inactive)	> 100 µM (inactive)	–	> 100 µM (inactive)	> 100 µM (inactive)	> 100 µM (inactive)	> 100 µM (inactive)	> 100 µM (inactive)	> 100 µM (inactive)
O=C(O)C(C(=O)C(=O)C(C(=O)O)c1ccc(Cl)cc1)c1ccc(Cl)cc1 (stereo unspecified)	3.52 µM (inactive)	2.52 µM (inactive)	2.24 µM (inactive)	3.27 µM (inactive)	3.31 µM (inactive)	5.32 µM (inactive)	3.64 µM (inactive)	2.43 µM (inactive)	–
O=C(Cn1cc(I)c(C(=O)NCC(O)CO)n1)NCC(O)CO (stereo unspecified)	> 100 µM (inactive)	> 100 µM (inactive)	> 100 µM (inactive)	> 100 µM (inactive)	> 100 µM (inactive)	> 100 µM (inactive)	> 100 µM (inactive)	> 100 µM (inactive)	–
Cc1ccc2[nH]c(Sc3c([N+](=O)[O-])ncn3C)nc2c1	20.4 µM (inactive)	> 10 µM (inactive)	14.3 µM (inactive)	23.2 µM (inactive)	25.6 µM (inactive)	17.5 µM (inactive)	12.2 µM (inactive)	0.586 µM (active)	17.2 µM (inactive)
CC(=O)c1ccc(NC(=O)COC(=O)c2cccc3c(=O)c4ccccc4[nH]c23)cc1	54 µM (inactive)	21.9 µM (inactive)	34.8 µM (inactive)	31.4 µM (inactive)	> 100 µM (inactive)	> 100 µM (inactive)	–	23.1 µM (inactive)	20.6 µM (inactive)
CC(C)(C)c1cc(C(=O)O)c(C(c2ccccc2)c2ccccc2C(=O)O)c(C(=O)O)c1 (stereo unspecified)	> 100 µM (inactive)	> 100 µM (inactive)	> 100 µM (inactive)	> 100 µM (inactive)	> 100 µM (inactive)	> 100 µM (inactive)	> 100 µM (inactive)	> 100 µM (inactive)	–
CCCCCCCCCCCCCC(=O)CC(=O)c1c(O)cccc1O	41.6 µM (inactive)	35.2 µM (inactive)	21.5 µM (inactive)	32.3 µM (inactive)	47.4 µM (inactive)	33.3 µM (inactive)	22.1 µM (inactive)	24.5 µM (inactive)	–

Reference: ChEMBL document CHEMBL1201862, “PubChem BioAssay data set” (2004)
